In BindingDB's records for doi:10.1016/j.bmcl.2019.126806 (Temple University, 2020) one finds EC50 data, which are given here for four compounds.

The structures appear in SMILES notation.

The target in the experiment is T1, Lysosomal acid glucosylceramidase (Homo sapiens, UniProt P04062).
T1 sequence (P04062 whole entry): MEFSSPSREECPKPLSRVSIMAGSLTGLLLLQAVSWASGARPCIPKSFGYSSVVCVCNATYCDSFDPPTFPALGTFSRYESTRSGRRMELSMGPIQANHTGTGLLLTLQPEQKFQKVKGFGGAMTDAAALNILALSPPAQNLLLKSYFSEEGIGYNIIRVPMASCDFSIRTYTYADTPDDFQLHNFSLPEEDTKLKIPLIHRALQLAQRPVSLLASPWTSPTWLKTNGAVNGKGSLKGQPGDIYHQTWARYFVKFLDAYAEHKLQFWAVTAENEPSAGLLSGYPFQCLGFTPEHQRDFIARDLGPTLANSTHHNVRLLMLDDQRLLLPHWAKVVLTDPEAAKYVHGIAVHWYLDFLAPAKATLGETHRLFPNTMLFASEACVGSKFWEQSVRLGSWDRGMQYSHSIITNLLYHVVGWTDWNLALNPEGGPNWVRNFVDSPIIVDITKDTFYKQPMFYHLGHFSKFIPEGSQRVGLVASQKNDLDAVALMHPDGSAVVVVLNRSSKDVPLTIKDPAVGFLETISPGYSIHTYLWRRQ
Put plainly: Chaperone activity at GCase in wild-type human fibroblasts assessed as increase in GPN-induced reduction of calcium release using Fluo-8AM based fluorescence assay.
In the case of `C/C=C/c1ccccc1C(CCCC)C(=O)c1ccc(OCCN(C)C)cc1` (centres undefined), the EC50 worked out at 1100 nM.

With `CC(C)CC(C(=O)c1ccc(OCCN(C)C)cc1)c1ccccc1C(C)C` (centres undefined), the EC50 is 1100 nM.

For the compound `CC(C)CC(C(=O)c1ccc(OCCN(C)C)cc1)c1ccccc1C1CC1` (centres undefined), the EC50 is 1100 nM.

As to `CCCCC(C(=O)c1ccc(OCCN(C)C)cc1)c1ccccc1C(C)C` (centres undefined), the EC50 stood at 700 nM.
